Reference: ChEMBL document CHEMBL1148123, “New diterpenes and norditerpenes from the fruits of Vitex rotundifolia” (2002)
Converted amounts (≈) assume the structure as drawn.

Tests used:
HCT-116 = experiment: Cytotoxicity against human HCT116 cells assessed as growth inhibition after 72 hrs by MTT assay; format: functional; conditions: HCT-116, 72 h
PC-12 = experiment: Cytotoxicity against rat PC12 cells assessed as growth inhibition after 72 hrs by MTT assay; format: functional; conditions: PC-12, 72 h

Row | Compound | GI50 (HCT-116) | GI50 (PC-12)
1 | CC(=O)O[C@@H]1C[C@@H](C)[C@]2(CCC(=O)O2)[C@@]2(C)CCCC(C)(C)[C@H]12 | > 5 µg/mL | > 5 µg/mL
2 | COc1ccc([C@@H]2CC(=O)c3c(cc(OC)c(OC)c3O)O2)cc1O | 2.87 µg/mL (≈ 8.29 µM) | 2.27 µg/mL (≈ 6.55 µM)
3 | CO[C@H]1C[C@@]2(CC[C@@]3(O2)[C@H](C)C[C@@H](OC(C)=O)[C@H]2C(C)(C)CCC[C@@]23C)[C@H](OC)O1 (relative stereo) | > 5 µg/mL | > 5 µg/mL
4 | COc1ccc(-c2oc3cc(OC)c(OC)c(O)c3c(=O)c2OC)cc1OC [ARTEMETIN] | 2.2 µg/mL (≈ 5.66 µM) | 2.27 µg/mL (≈ 5.84 µM)
5 | COc1ccc(-c2oc3cc(OC)c(OC)c(O)c3c(=O)c2OC)cc1O [CASTICIN] | 0.119 µg/mL (≈ 0.318 µM) | 0.114 µg/mL (≈ 0.305 µM)
6 | CC(=O)O[C@@H]1C[C@@H](C)[C@](O)(CCC2=CC(=O)OC2)[C@@]2(C)CCCC(C)(C)[C@H]12 [VITEXILACTONE] | > 5 µg/mL | > 5 µg/mL
